According to US10183021B2, “sGC stimulators” (Ironwood Pharmaceuticals, Inc., priority 2013, dated 2019):

What was measured:
[1] = tested on: lambs with acute pulmonary hypertension; conditions: inhaled microparticles, awake lambs, U-46619-induced pulmonary hypertension; cited from earlier work
obese mice = conditions: cited from earlier work
[2] = target: T1, soluble guanylate cyclase (sGC) (Homo sapiens (Human), UniProt Q02108+Q02153); assay: sGC-HEK-cGMP assay, new protocol with DETA-NONOate, LC/MS detection (Example 2C); assay type: cell-based; conditions: read-out: Absolute EC50 (uM) - binned
T1 sequence (Q02153 whole entry): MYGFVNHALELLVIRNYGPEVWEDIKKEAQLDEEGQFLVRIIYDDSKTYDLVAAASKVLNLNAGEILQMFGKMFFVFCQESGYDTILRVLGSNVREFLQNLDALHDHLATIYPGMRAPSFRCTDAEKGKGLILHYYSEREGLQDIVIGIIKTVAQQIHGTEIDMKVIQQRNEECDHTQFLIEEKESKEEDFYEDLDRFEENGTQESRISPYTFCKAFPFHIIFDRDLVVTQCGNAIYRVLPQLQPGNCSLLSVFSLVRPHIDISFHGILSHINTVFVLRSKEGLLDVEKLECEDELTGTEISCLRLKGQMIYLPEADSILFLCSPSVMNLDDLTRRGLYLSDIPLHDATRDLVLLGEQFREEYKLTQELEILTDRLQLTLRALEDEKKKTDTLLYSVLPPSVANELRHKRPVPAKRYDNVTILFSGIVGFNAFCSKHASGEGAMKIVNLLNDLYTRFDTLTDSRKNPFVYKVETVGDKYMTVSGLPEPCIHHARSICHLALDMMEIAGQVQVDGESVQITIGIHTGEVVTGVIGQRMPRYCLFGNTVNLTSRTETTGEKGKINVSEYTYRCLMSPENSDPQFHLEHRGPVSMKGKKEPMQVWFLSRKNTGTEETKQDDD
T1 sequence (Q02108 whole entry): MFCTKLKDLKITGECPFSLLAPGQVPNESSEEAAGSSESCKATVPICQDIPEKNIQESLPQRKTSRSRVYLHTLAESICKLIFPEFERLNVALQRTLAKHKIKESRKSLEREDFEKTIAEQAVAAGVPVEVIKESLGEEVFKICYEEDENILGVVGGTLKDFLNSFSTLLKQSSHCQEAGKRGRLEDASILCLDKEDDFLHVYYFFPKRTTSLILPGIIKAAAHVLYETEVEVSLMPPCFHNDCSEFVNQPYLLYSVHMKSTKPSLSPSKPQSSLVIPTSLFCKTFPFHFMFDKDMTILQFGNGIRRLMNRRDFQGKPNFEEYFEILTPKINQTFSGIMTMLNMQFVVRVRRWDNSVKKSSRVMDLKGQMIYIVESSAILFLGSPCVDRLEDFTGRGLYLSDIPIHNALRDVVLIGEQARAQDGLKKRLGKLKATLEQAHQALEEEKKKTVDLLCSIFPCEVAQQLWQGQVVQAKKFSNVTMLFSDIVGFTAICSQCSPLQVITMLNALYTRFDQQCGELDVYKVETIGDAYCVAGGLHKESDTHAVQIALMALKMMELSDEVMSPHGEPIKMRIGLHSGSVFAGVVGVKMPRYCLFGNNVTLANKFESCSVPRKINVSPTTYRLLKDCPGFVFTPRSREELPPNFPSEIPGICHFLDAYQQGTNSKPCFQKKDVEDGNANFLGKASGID

[3] = target: T1, soluble guanylate cyclase (sGC); assay: sGC-HEK-cGMP assay with SNP incubation, LC/MS detection (Example 2A); assay type: cell-based; conditions: HEK293 cells, 10 μM SNP, LC/MS detection; for Emax: 100% = BAY 41-2272 at 10 μM, read-out: HEK assay Emax - unconstrained (%)
How it was run: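 HEK293 cells with endogenous sGC were pretreated 15 min at 37 °C with 0.5 mM IBMX, then exposed 10 min at 37 °C to compound (added from 0.0001–30 μM solutions) plus SNP (from 10 μM solution). After 0.1 M HCl lysis, cGMP was quantified by LC/MS against a standard curve.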

[4] = target: T1, soluble guanylate cyclase (sGC); assay: sGC-HEK-cGMP assay with SNP incubation, HTRF detection (Example 2B); assay type: cell-based; conditions: HEK293 cells, 10 μM SNP; for Emax: 100% = BAY 41-2272 at 10 μM + 100 μM SNP, read-out: HEK assay Emax - unconstrained (%); for EC50: read-out: HEK assay EC50 - unconstrained
Description: Human embryonic kidney cells (HEK293), endogenously expressing soluble guanylate cyclase (sGC), were used to evaluate the activity of test compounds. Compounds stimulating the sGC enzyme should cause an increase in the intracellular concentration of cGMP. HEK 293 cells were seeded in Dulbecco's Modification of Eagle's Medium supplemented with fetal bovine serum (10% final) and L-glutamine (2 mM final) in a 200 μL volume at a density of 1×10^5 cells/well in a poly-D-lysine coated 96 well flat bottom plate and grown overnight at 37° C. Medium was aspirated and cells were washed with 1× Hank's Buffered Saline Salt Solution (200 μL). Cells were then incubated for 15 minutes at 37° C. with 200 μL of a 0.5 mM 3-isobutyl-1-methylxanthine (IBMX) solution. Test article and sodium nitroprusside solutions were then added to the assay mixture (2 μL each) and the resulting mixture incubated at 37° C. for 10 minutes. After the 10 minute incubation, the assay mixture was aspirated and 0.1M HCl (200 μL) was added to the cells. The plate was incubated at 4° C. for 30 minutes in the 0.1M HCl to stop the reaction and lyse the cells. The plates were then centrifuged at 1,200 g for 5 minutes at room temperature. GMP levels were determined using a cGMP HTRF assay (Cisbio Product #62GM2PEC). For each sample, 5 uL of HEK assay supernatant was diluted 1:5 in HTRF kit assay diluent and transferred to a well of the assay plate, and the HTRF assay was performed according to the HTRF kit manufacturer's instructions. Sample calculations were performed using high and low controls, where high control was supernatant from HEK assay performed in the presence of 10 uM Bay 41-2272+100 uM SNP, and the low control was the supernatant from the HEK assay performed in the presence of vehicle. A cGMP standard solution was prepared in 0.1 M HCl and diluted in order to perform a cGMP standard curve using the HTRF assay. Using Mean Ratio data from the HTRF assay, sample date were normalized according to the equation: 100*(Sample−Low Control)/(High Control−Low Control). Data were fit to a 3-parameter log agonist dose response (Top (% EMax), Bottom, log EC50) using Graphpad (Prism Software). Data in Table 4 was obtained using this modified assay procedure. (x μM concentration for test article solution and 10 μM concentration for SNP solution; wherein x is one of the following concentrations: 30 μM, 10 μM, 3 μM, 1 μM, 0.3 μM, 0.1 μM, 0.03 μM, 0.01 μM, 0.003 μM, 0.001 μM, 0.0003 μM and 0.01 nM.

Sprague-Dawley rats = assay: Blood pressure change in Sprague-Dawley rats (Example 4); assay type: in vivo, rat; conditions: conscious male Sprague-Dawley rats, PO, 10 mg/kg
Description: Male rats (250-350 g body weight, supplied by Harlan Laboratories) were anesthetized with ketamine/xylazine and a heparinized saline fluid filled catheter implanted into the right femoral artery. The catheter was exteriorized between the scapula, capped, and the animal allowed to recover for at least 7 days post surgery prior to any compound testing. Prior to testing animals were maintained on normal diet, with free access to drinking water, under a 12 hour light-dark cycle.
On the day of experimentation, under inhaled isoflurane anesthesia, the catheter was uncapped and connected to a tether (Instech Labs) and pressure transducer (Harvard Apparatus). Blood pressure and heart rate were subsequently captured and analyzed with a dedicated data capture system (PowerLab, ADInstruments). Data sampling rates were set at 1 cycle per second. Once connected, each rat was allowed to recover from anesthesia and baseline blood pressure and heart rate levels were established in these conscious, freely-moving animals. Once baseline was established either vehicle (0.5% methylcellulose or 100% PEG400) or test article was administered orally (PO, 10 mg/kg) and the effects on blood pressure and heart rate monitored for up to 24 hours.
Data are reported as hourly averages and changes in blood pressure are calculated from subtracting individual baseline on an hourly basis.

[5] = tested on: Guinea pig tracheal smooth muscle; assay: Electrical field stimulated guinea pig tracheal smooth muscle contraction; conditions: inhibition of EFS-induced guinea pig tracheal smooth muscle contraction; 95% CI 0.78-0.94
Description: It is possible to assess the bronchodilating effects of sGC stimulators by using the system described below. This system allows us to determine potency, efficacy and duration of action of several sGC stimulators, as well as to assess potential side effects such as blood pressure, or heart rate changes.
Animals: Guinea pig, Dunkin Hartley, male, Full barrier-bred and certified free of specific micro-organisms on receipt 525-609 g on the experimental day, Harlan UK Ltd. Guinea pigs are housed in a group of 4 in solid-bottomed cages with Gold Flake bedding in a controlled environment (airflow, temperature and humidity). Food (FD1, Special Diet Services) and water are provided ad libitum.
On each experimental day, a guinea pig is killed by exposure to a rising concentration of CO2 and the trachea removed. […] Tissues are washed with Kreb's buffer and stimulated using the previously determined sub-maximal voltage for 1 hour to establish a stable baseline contraction prior to assessment of compound activity.
A cumulative dose response curve (DRC) to each test substance is then performed and changes in smooth muscle contraction measured. The effect of each test substance in each experiment is expressed as a percentage inhibition of the baseline contraction, normalized to the relevant vehicle controls. […]

patients with BMD = conditions: single oral dose of 20 mg; cited from earlier work
[6] = top of curve not fitted to 100%, read-out: HEK assay EC50 - unconstrained
[7] = top of curve fitted to 100%, read-out: HEK assay EC50 - constrained

SMILES | Emax [3] [%] | EC50 [3, 6] [µM] | Emax [4] [%] | EC50 [4] [µM] | other results
Nc1nc(-c2nn(Cc3ccccc3F)c3ncccc23)ncc1C1CC1 [BAY 41-2272] |  |  |  |  | pulmonary vasodilation [1]: dose dependent pulmonary vasodilation
Nc1nc(-c2nn(Cc3ccccc3F)c3ncccc23)nc(N)c1N1CCOCC1 [BAY 41-8543] |  |  |  |  | pulmonary vasodilation [1]: dose dependent pulmonary vasodilation
O=C(O)CCCCN(CCc1ccccc1OCc1ccc(CCc2ccccc2)cc1)Cc1ccc(C(=O)O)cc1 [BAY 58-2667] |  |  |  |  | pulmonary vasodilation [1]: dose dependent pulmonary vasodilation
O=C(O)CCCCN(CCc1cc(F)ccc1OCc1ccc(-c2ccc(C(F)(F)F)cc2)cc1)Cc1ccc(C(=O)O)cc1 [BAY 60-2770] |  |  |  |  | effect on overactive bladder (obese mice): ameliorates overactive bladder in obese mice
Fc1ccccc1Cn1nc(-c2ncc(F)c(N3CCn4c(nnc4C(F)(F)F)C3)n2)cc1-c1ccon1 [Compound I-16] | 100 to 120 | 0.001 to 0.1 | 100 to 120 | 0.001 to 0.1 | EC50 [2]: < 0.1 µM
COC(=O)Nc1nc(-c2cc(-c3ccon3)n(Cc3ccccc3F)n2)ncc1F [Compound I-51] |  |  | 80 to 100 | 0.5 to 1 | EC50 [3, 7]: 1 to 5 µM
O=C(O)CNc1nc(-c2cc(-c3ccon3)n(Cc3ccccc3F)n2)ncc1F [Compound I-67] | 80 to 100 | 5 to 10 | 60 to 80 | 1 to 5 | EC50 [2]: > 1 µM; EC50 [3, 7]: > 10 µM
CC(C)[C@@H](C(=O)O)N(C)c1nc(-c2nc(-c3ccon3)n(Cc3ccccc3F)n2)ncc1F [Compound I-200] | 80 to 100 | 5 to 10 | 100 to 120 | 1 to 5 | EC50 [2]: > 1 µM; EC50 [3, 7]: 1 to 5 µM
CC(C)C[C@H](C(=O)O)N(C)c1nc(-c2cc(-c3ccon3)n(Cc3ccccc3F)n2)ncc1F [Compound I-221] | 0 to 10 | > 10 | 100 to 120 | 1 to 5 | EC50 [2]: < 0.1 µM
CC(C)[C@H](CN(C)c1nc(-c2cc(-c3ccon3)n(Cc3ccccc3F)n2)ncc1F)C(=O)O [Compound I-248] | 80 to 100 | 0.001 to 0.1 | 80 to 100 | 0.001 to 0.1 | Rat Mean Arterial Pressure peak change from baseline at 10 mpk (Sprague-Dawley rats): C (C = peak change from baseline at 10 mpk < −20)
CC1(C(=O)O)CCN(c2nc(-c3nc(-c4ccon4)n(Cc4ccccc4F)n3)ncc2F)CC1 [Compound I-249] | 60 to 80 | 1 to 5 | 100 to 120 | 0.5 to 1 | 
CC(C)[C@@H](CN(C)c1nc(-c2cc(-c3ccon3)n(Cc3ccccc3F)n2)ncc1F)C(=O)O [Compound I-253] | 60 to 80 | 0.001 to 0.1 | 80 to 100 | 0.001 to 0.1 | Rat Mean Arterial Pressure peak change from baseline at 10 mpk (Sprague-Dawley rats): B (B = −20 ≤ peak change from baseline at 10 mpk ≤ −10)
CC(C)[N+]1(C)[C@@H]2CC[C@H]1CC(OC(=O)C(CO)c1ccccc1)C2 (stereo partly drawn) [Ipratropium bromide] |  |  |  |  | IC50 [5]: 0.00086 µM
CN1CC(=O)N2[C@H](c3ccc4c(c3)OCO4)c3[nH]c4ccccc4c3C[C@@H]2C1=O [tadalafil] |  |  |  |  | blood flow regulation (exercise-induced attenuation of reflex vasoconstriction) (patients with BMD): normal blood flow regulation was restored in eight of nine patients
